Patent US20230277550A1, “Methods for Treating Respiratory Diseases Characterized by Mucus Hypersecretion” (The Board of Trustees of the Leland Stanford Junior …, priority 2020, published 2023)

What was measured:
[1] = test system: healthy and CF primary human airway epithelial cultures; test: SEM of cilia in healthy and CF cultures; format: cell-based; settings: healthy and CF cultures under DAPT vs untreated healthy cultures
[2] = test system: Mature (ALI+30d) primary cystic fibrosis human airway epithelial cells; test: DAPT treatment of mature cystic fibrosis cultures; format: cell-based; settings: mature CF cultures, one week (ALI+30 to +37d)
Method: Mature (ALI+30d) primary cystic fibrosis human airway epithelial cells were treated with DAPT for one week (ALI+30 to +37d), then labeled with anti-acetylated α-Tubulin (green) and ECAD (red) antibodies.

[3] = test system: primary human epithelial cells; test: Ciliary beat frequency and cilium length with DAPT; format: cell-based; settings: cells differentiated in the presence of DAPT vs untreated
[4] = test system: Primary human airway epithelial cells; test: MCC formation by timing of GSI treatment (proliferation, differentiation, continuous); format: cell-based
Method: Primary human airway epithelial cells were treated with DAPT and LY45139: i) during proliferation only (ALI-5 to -1d), ii) during differentiation only (ALI+0 to +21d) or iii) continuously during the entire culture duration, followed by labeling at ALI+21d with anti-acetylated α-Tubulin (green) and ECAD (red) antibodies.

[5] = test system: Mature (ALI+30d) primary human airway epithelial cells; test: GSI treatment of mature (ALI+30d) cultures; format: cell-based; settings: mature cultures treated one (ALI+30 to +37d) or two weeks (ALI+30 to +44d)
Method: Mature (ALI+30d) primary human airway epithelial cells were treated with DAPT and semagacestat for one (ALI+30 to +37d) or two weeks (ALI+30 to +44d), then labeled with anti-acetylated α-Tubulin (green) and ECAD (red) antibodies.

[6] = test system: HNEC cultures from a CF patient; test: IL-13 induced chronic inflammation model in ALI HNEC cultures; format: cell-based, human; settings: DAPT 1 um, semagacestat 125 nm, days 14-21
Method: Administration of IL-13 to ALI cultures induces goblet cell hyperplasia and is a useful model of chronic inflammation. ALI HNEC cultures were prepared as described in Vladar et al. ALI cultures were treated with and without administration of Il-13 on days 7-14. DAPT (1 um), semagacestat (125 nm) or vehicle control were administered on days 14-21. PFA-fixed cultures were stained for Muc5AC (red; mucin producing secretory cells), Acetylated tubulin (green; MCCs) and E-Cadherin (blue to reveal cell boundaries).
HNEC cultures from a CF patient were treated with IL-13 from ALI+7 to 14 to induce inflammation. […] IL-13 treatment increases the percentage of mucin positive secretory cells and decreases the percentage of MCCs.

[7] = test system: Primary human airway epithelial cells; test: GSI treatment from the apical or basal surface; format: cell-based; settings: ALI+0 to +21d, apical or basal application
Method: Primary human airway epithelial cells were treated with DAPT and LY45139 during differentiation only (ALI+0 to +21d) from either the apical or basal surface, then labeled at ALI+21d with anti-acetylated α-Tubulin (green) and ECAD (red) antibodies. […] Apical treatment eliminates the air-liquid interface, which results in the poor epithelial structure and multiciliated cell differentiation in the untreated cultures, which is partially rescued by GSI treatment.

[8] = test system: primary human nasal epithelial cells (HNECs); test: Semagacestat dose response on multiciliated cell (MCC) formation in HNEC ALI cultures; format: cell-based; settings: 1 µM DAPT; p <0.01 by ANOVA with Dunnett's test
Method: Air-Liquid Interface (ALI) cultures were prepared as described in Vladar EK, Nayak JV, Milla CE, Axelrod JD. Airway epithelial homeostasis and planar cell polarity signaling depend on multiciliated cell differentiation. JCI Insight. 2016;1(13);e88027. Human nasal epithelial cells (HNECs) were generated from human sinonasal epithelial brushings or from tissue obtained from patients undergoing endoscopic sinus surgery at Stanford Hospital and cultured as described in Vladar et al.
Cultures were treated with varying doses of semagacestat. DAPT (Abcam) was used ([…]) as a positive control for GSI activity. Cultures were labeled at ALI+21d with anti-acetylated α-tubulin (green) and ECAD (red) antibodies to mark cilia and epithelial junctions.
The ratio was defined as MCC number/total luminal cells. Counting was done on one representative image from 5 culture replicates from a single donor.

[9] = test system: Primary human airway epithelial cells; test: MCC formation with a variety of GSIs at high and low concentrations; format: cell-based; settings: for epithelial structure: high concentrations; for epithelial structure / multiciliated cell formation: ALI+0 to +21d; for multiciliated cell formation: low concentration; for Notch signaling and differentiation towards MCCs: nanomolar range, human nasal epithelial cells
CFTR = CFTR current in Ussing chambers, GSI with or without ETI; format: cell-based, human
Method: Cells grown at an air liquid interface were mounted on a holding slider and inserted on an Ussing chamber for electrophysiological short circuit current (Isc) measurements. Solutions in the serosal and mucosal bath were prepared so that a chloride gradient was established between both sides. After stable baseline current recordings were obtained, agonists were added in the following order: amiloride (10 µM) to block sodium channel activity, forskolin (10 µM) to stimulate CFTR, Ivacaftor (10 µM) to potentiate CFTR activity, and CFTRinh-172 (20 µM) to block CFTR current. For each agonist signals were monitored until a plateau in current was noted before adding the next agonist. The delta-Isc in response to CFTRinh-172 was used as our main read out for CFTR-mediated chloride transport.
We directly measured CFTR activity in cultures from CF patients treated with GSI with or without well-established effective in vitro doses of Trikafta (Elexcaftor/Tezacaftor/Ivacaftor or “ETI”). Veit, G., et al., JCI (2020) 10.1172/jci.insight.139983. Measurements were performed in Ussing chambers. […] In some individual experiments, there appeared to be a synergistic effect in the combination treatment: GSI alone has no effect but the combination treatment produced a greater response than ETI alone. This effect was not consistently seen, but raised the possibility that synergy might be observed with lower ETI doses.
To examine this further, we tested MK04752 in combination with varying doses of ETI (FIG. 28).

[10] = test system: Primary nasal epithelial cells from two CF donors (F508del homozygotes); test: Ciliary beat frequency (CBF) in CF donor cultures, MK-0752 and Elexacaftor; format: cell-based, human; settings: MK-0752 125 nM or triple modulator with Elexacaftor 100 nM; p < 0.001
[11] = cited from earlier work

## C[C@H](NC(=O)Cc1cc(F)cc(F)c1)C(=O)NC(C(=O)OC(C)(C)C)c1ccccc1 (some centres unmarked) [DAPT]
[1]
  structure of multiciliated cells by SEM: indistinguishable from those in untreated healthy cultures
[2]
  formation of additional multiciliated cells: induces the formation of additional multiciliated cells in mature cystic fibrosis cultures
[3]
  ciliary beat frequency: modest, but significant increase
  cilium length: no difference
[4]; treatment during differentiation (differentiation only ALI+0 to +21d, and continuous)
  MCC cell numbers: increased MCC cell numbers
[4]; treatment during proliferation only (ALI-5 to -1d)
  effect on differentiation: had no effect on differentiation
[5]
  formation of additional multiciliated cells: induces the formation of additional multiciliated cells
[6]; after IL-13 (ALI+7 to 14)
  percentage of MCCs: increasing the percentage of MCCs
  percentage of mucin positive secretory cells: decreasing the percentage of mucin positive secretory cells
[6]; controls without IL-13
  percentage of MCCs: increase the percentage off MCCs
[7]
  ciliated cell formation: induces ciliated cell formation via both apical and basal application
[8]
  ratio MCC number/total luminal cells: significant increases

## O=C(O)CC[C@H]1CC[C@@](c2cc(F)ccc2F)(S(=O)(=O)c2ccc(Cl)cc2)CC1 [MK-0752]
[9]
  epithelial structure: disrupted epithelial structure
  multiciliated cell formation: induced multiciliated cell formation
  Notch signaling and differentiation towards MCCs: effective in blocking Notch signaling, driving differentiation towards MCCs
CFTR; MK04752 with varying (reduced Elexacaftor) doses of ETI
  CFTR current with suboptimal doses of ETI: suboptimal doses of ETI appear to be potentiated by MK04752
CFTR; cultures from CF patients, GSI plus ETI
  CFTR current induced by ETI: Neither LY45139 (FIG. 26) nor MK04752 (FIG. 27) impaired the CFTR current
[10]
  ciliary beat frequency (CBF) vs control: significant effect in increasing the CBF
[11]; 450 to 4,200 mg, three schedules
  most common drug-related toxicities: diarrhea, nausea, vomiting, and fatigue
[11]; weekly dosing
  tolerability: generally well-tolerated

## CC(C)(C(=O)NCC(F)(F)C(F)(F)F)C(=O)N[C@@H]1C(=O)Nc2ccccc2-c2ccccc21 [RO-4929097]
[9]
  epithelial structure: disrupted epithelial structure
  multiciliated cell formation: induced multiciliated cell formation
  Notch signaling and differentiation towards MCCs: effective in blocking Notch signaling, driving differentiation towards MCCs

## CCC[C@H](N[C@H]1CCc2cc(F)cc(F)c2C1)C(=O)Nc1cn(C(C)(C)CNCC(C)(C)C)cn1 [nirogacestat, (S)-2-((S)-5,7-difluoro-1,2,3,4-tetrahydronaphthalen-3-ylamino)-N-(1-(2-m-ethyl-1-(neopentylamino)propan-2-yl)-1H-imidazol-4-yl)pentanamide]
[9]
  epithelial structure: disrupted epithelial structure
  multiciliated cell formation: induced multiciliated cell formation
  Notch signaling and differentiation towards MCCs: effective in blocking Notch signaling, driving differentiation towards MCCs
